The term AC50 denotes the concentration giving half of the maximal activity seen.

The target of the test is T1, APOL1 G2 (Homo sapiens, UniProt O14791, DEL388-389).
T1 construct: expressed in transfected cells; host or cells: HEK293 T-REx clonal line stably expressing GCaMP6f (HEK T-REx/GCaMP6f/APOL1 G2 K6.3), doxycycline induced
T1 sequence (O14791 with tags, fused parts or gaps DEL388-389): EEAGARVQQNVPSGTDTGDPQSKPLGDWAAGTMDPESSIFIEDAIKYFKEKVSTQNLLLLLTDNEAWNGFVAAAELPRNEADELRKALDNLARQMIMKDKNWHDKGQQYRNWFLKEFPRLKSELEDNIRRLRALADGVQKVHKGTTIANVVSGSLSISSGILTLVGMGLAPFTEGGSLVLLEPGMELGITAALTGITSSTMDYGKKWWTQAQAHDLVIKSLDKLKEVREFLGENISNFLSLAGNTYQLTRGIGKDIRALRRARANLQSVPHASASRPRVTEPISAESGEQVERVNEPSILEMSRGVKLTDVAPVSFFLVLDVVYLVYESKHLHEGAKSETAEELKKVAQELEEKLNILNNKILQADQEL
Nature of the test: APOL1-mediated calcium transport (calcium influx) assay, HEK T-REx/GCaMP6f/APOL1 G2 K6.3 cells, FLIPR TETRA. The following applies: prevention of calcium influx; geometric mean of at least 2 assay runs; † = average of a technical replicate from a single assay run. In kind it is cell-based. In outline: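 A HEK293 T-REx clone stably expressing GCaMP6f had APOL1 G2 induced with doxycycline (20 ng/mL solution added) for 6 h. Cells were then washed into Ca2+-free Tyrode's buffer (pH 7.4) and preincubated with compounds (duplicate 8-point) for 10 min at room temperature. Ca2+ injection to 5 mM final produced FLIPR GCaMP fluorescence, giving AC50 for influx inhibition (geometric mean, ≥2 runs).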
On to `CC(COc1ccc2c(c1)CCC(=O)N2C)N1CCC2(CC1)C(=O)Nc1ccc(Cl)cc12` (single isomer, unassigned) [Compound 200], for which the AC50 was 1200 nM.
As to `CC(COc1ccc2c(c1)CCC(=O)N2C)N1CCC2(CC1)C(=O)Nc1ccc(C#N)cc12` (single isomer, unassigned) [Compound 203, (S) or (R)-1′-{1-[(1-methyl-2-oxo-1,2,3,4-tetrahydroquinolin-6-yl)oxy]propan-2-yl}-2-oxo-1,2-dihydrospiro[indole-3,4′-piperidine]-5-carbonitrile], the half-maximal activity concentration (AC50) was found to be 1190 nM.
The result for `C[C@@H](COc1ccc(S(C)(=O)=O)c(C(F)F)c1)N1CCC2(CC1)C(=O)Nc1ccc(Cl)cc12` (single isomer, unassigned) [Compound 210] reads 1540 nM; that for `C[C@@H](COc1ccc2c(cnn2C)c1)N1CCC2(CC1)C(=O)Nc1ccc(Cl)cc12` (single isomer, unassigned) [Compound 211], 1290 nM; that for `C[C@@H](COc1ccc(S(C)(=O)=O)c(C(F)F)c1)N1CCC2(CC1)C(=O)Nc1ccc(C#N)cc12` (single isomer, unassigned) [Compound 212], 1360 nM.
The result for `CS(=O)(=O)c1ccc(OCCN2CCC3(CC2)C(=O)Nc2ccc(Cl)cc23)cc1C(F)CF` (single isomer, unassigned) [Compound 218, 5-chloro-1′-(2-{3-[(1S or 1R)-1,2-difluoroethyl]-4-methanesulfonylphenoxy}ethyl)-1,2-dihydrospiro[indole-3,4′-piperidin]-2-one] reads 690 nM; that for `CS(=O)(=O)c1ccc(OCCN2CCC3(CC2)C(=O)Nc2ccc(Cl)cc23)cc1C(F)CF` (single isomer, unassigned) [Compound 219, 5-chloro-1′-(2-{3-[(1R or 1S)-1,2-difluoroethyl]-4-methanesulfonylphenoxy}ethyl)-1,2-dihydrospiro[indole-3,4′-piperidin]-2-one], 835 nM; that for `CS(=O)(=O)c1ccc(OCCN2CCC3(CC2)C(=O)Nc2ccc(C#N)cc23)cc1C(F)CF` (single isomer, unassigned) [Compound 221, 1′-(2-{3-[(1S or 1R)-1,2-difluoroethyl]-4-methanesulfonyl-phenoxy}ethyl)-2-oxo-1,2-dihydrospiro [indole-3,4′-piperidine]-5-carbonitrile], 598 nM.
The result for `CC(COc1ccc(C2(S(C)(=O)=O)COC2)cc1)N1CCC2(CC1)C(=O)Nc1ccc(C#N)cc12` (single isomer, unassigned) [Compound 263, (S) or (R)-1′-{1-[4-(3-methanesulfonyloxetan-3-yl)phenoxy]propan-2-yl}-2-oxo-1,2-dihydrospiro[indole-3,4′-piperidine]-5-carbonitrile] reads 2540 nM; that for `CN1C(=O)C2(CCN(CCOc3ccc(C4(S(C)(=O)=O)CC(O)C4)cc3)CC2)c2cc(C(F)F)ccc21` (single isomer, unassigned) [Compound 278, 5-(difluoromethyl)-1-methyl-1′-(2-{4-[(cis) or (trans)-3-hydroxy-1-methanesulfonylcyclobutyl]phenoxy}ethyl)-1,2-dihydrospiro[indole-3,4′-piperidin]-2-one], 769 nM.
Take `CS(=O)(=O)C1(c2ccc(OCCN3CCC4(CC3)C(=O)Nc3ccc(C(F)F)cc34)cc2)CC(O)C1` (single isomer, unassigned) [Compound 281, 5-(difluoromethyl)-1′-(2-{4-[(cis) or (trans)-3-hydroxy-1-methanesulfonylcyclobutyl]phenoxy}ethyl)-1,2-dihydrospiro[indole-3,4′-piperidin]-2-one]: the half-maximal activity concentration (AC50) stood at 1310 nM.
The result for `CC(O)c1ncc(OCCN2CCC3(CC2)C(=O)Nc2ccc(Cl)cc23)cn1` (single isomer, unassigned) [Compound 285, 5-chloro-1′-[2-({2-[(1S) or (1R)-1-hydroxyethyl]pyrimidin-5-yl}oxy)ethyl]-1,2-dihydrospiro[indole-3,4′-piperidin]-2-one] reads 714 nM.
In the case of `CC(O)c1ncc(OCCN2CCC3(CC2)C(=O)Nc2ccc(Cl)cc23)cn1` (single isomer, unassigned) [Compound 286, 5-chloro-1′-[2-({2-[(1R) or (1S)-1-hydroxyethyl]pyrimidin-5-yl}oxy)ethyl]-1,2-dihydrospiro[indole-3,4′-piperidin]-2-one] it was 917 nM; in that of `CC(O)c1ncc(OCCN2CCC3(CC2)C(=O)Nc2ccc(C(F)F)cc23)cc1C(F)(F)F` (single isomer, unassigned) [Compound 287, 5-(difluoromethyl)-1′-[2-({6-[(1S) or (1R)-1-hydroxyethyl]-5-(trifluoromethyl)pyridin-3-yl}oxy)ethyl]-1,2-dihydrospiro[indole-3,4′-piperidin]-2-one], 303 nM.
The result for `CC(O)c1ncc(OCCN2CCC3(CC2)C(=O)Nc2ccc(C(F)F)cc23)cc1C(F)(F)F` (single isomer, unassigned) [Compound 288, 5-(difluoromethyl)-1′-[2-({6-[(1R) or (1S)-1-hydroxyethyl]-5-(trifluoromethyl)pyridin-3-yl}oxy)ethyl]-1,2-dihydrospiro[indole-3,4′-piperidin]-2-one] reads 369 nM; that for `CC[C@]1(O)C[C@H](N2C(=O)CCc3cc(OCCN4CCC5(CC4)C(=O)Nc4ccc(Cl)cc45)cnc32)C1` (single isomer, unassigned) [Compound 290, 5-chloro-1′-[2-({7-oxo-8-[(trans)-3-ethyl-3-hydroxycyclobutyl]-5,6,7,8-tetrahydro-1,8-naphthyridin-3-yl}oxy)ethyl]-1,2-dihydrospiro[indole-3,4′-piperidin]-2-one], 253 nM.
On to `CC(O)c1ncc(OCCN2CCC3(CC2)C(=O)Nc2ccc(Cl)cc23)cc1C(F)(F)F` (single isomer, unassigned) [Compound 291, 5-chloro-1′-[2-({6-[(1R) or (1S)-1-hydroxyethyl]-5-(trifluoromethyl)pyridin-3-yl}oxy)ethyl]-1,2-dihydrospiro[indole-3,4′-piperidin]-2-one], for which the AC50 is 1190 nM.
The result for `CC(O)c1ncc(OCCN2CCC3(CC2)C(=O)Nc2ccc(Cl)cc23)cc1C(F)(F)F` (single isomer, unassigned) [Compound 292, 5-chloro-1′-[2-({6-[(1S) or (1R)-1-hydroxyethyl]-5-(trifluoromethyl)pyridin-3-yl}oxy)ethyl]-1,2-dihydrospiro[indole-3,4′-piperidin]-2-one] reads 1300 nM.
`O=C1CCc2cc(OCCN3CCC4(CC3)C(=O)Nc3ccc(Cl)cc34)cnc2N1[C@H]1C[C@@](O)(C2CC2)C1` (single isomer, unassigned) [Compound 297, 5-chloro-1′-[2-({7-oxo-8-[(trans)-3-cyclopropyl-3-hydroxycyclobutyl]-5,6,7,8-tetrahydro-1,8-naphthyridin-3-yl}oxy)ethyl]-1,2-dihydrospiro[indole-3,4′-piperidin]-2-one]: the AC50 worked out at 937 nM.
The result for `C[C@]1(O)C[C@H](N2C(=O)CCc3cc(OCCN4CCC5(CC4)C(=O)Nc4ccc(Cl)cc45)cnc32)C1` (single isomer, unassigned) [Compound 307, 5-chloro-1′-[2-({7-oxo-8-[(trans)-3-hydroxy-3-methylcyclobutyl]-5,6,7,8-tetrahydro-1,8-naphthyridin-3-yl}oxy)ethyl]-1,2-dihydrospiro[indole-3,4′-piperidin]-2-one] reads 320 nM.

(Values after patent publication US12344610B2, “APOL1 inhibitors and methods of use” (Maze Therapeutics, Inc., priority 2022, dated 2025).)
